Biological target: Inosine-5'-monophosphate dehydrogenase (IMPDH) (Homo sapiens, UniProt P20839+P12268)
Experiment: Inhibitory activity against (IMPDH) inosine 5'-monophosphate dehydrogenase
Format: protein assay

IC50 [µM]	Compound
0.18	CC(C)(C)NC(=O)C(=O)Nc1ccc(-c2cnco2)c(Cl)c1
14	Cc1ncoc1-c1ccc(NC(=O)C(=O)NC(C)(C)C)cc1
99	N#Cc1ccc2[nH]ccc2c1
32	COc1ccc2[nH]cc(C(=O)CSc3ccncc3)c2c1
2.4	COc1cc(NC(=O)C(=O)NC(C)(C)C)ccc1-c1ccc[nH]1
31	COc1ccc(C#N)c2ccccc12
1.3	CCOc1cc(NC(=O)C(=O)NC(C)(C)C)ccc1-c1cnco1
168	Nc1ccnc2cc(Cl)ccc12
0.73	CC(C)(C)NC(=O)C(=O)Nc1ccc(-c2cnco2)c(F)c1
8.1	COc1cc(NC(=O)C(=O)NC(C)(C)C)ccc1-c1ccco1
19	COc1cc(N)ccc1-c1cnco1
54	Oc1cccc2[nH]c3ccccc3c12
4.4	CC(C)(C)NC(=O)C(=O)Nc1ccc(-c2cnco2)c(O)c1
620	CC(=O)c1ccc(O)cc1C
1.2	CCc1cc(NC(=O)C(=O)NC(C)(C)C)ccc1-c1cnco1
0.2	Cc1cc(NC(=O)C(=O)NC(C)(C)C)ccc1-c1cnco1
0.91	COc1cc(NC(=O)C(=O)NC(C)(C)C)ccc1-c1cncs1

Second part, the compound before the results:

Compound	IC50 [µM]
COc1cc(NC(=O)C(=O)NC(C)(C)C)ccc1-c1cnco1	0.04
CC(C)(C)NC(=O)C(=O)Nc1ccc(-c2cnco2)cc1	20
CCCCc1ncoc1-c1ccc(NC(=O)C(=O)NC(C)(C)C)cc1OC	27
COc1ccc(NC(=O)C(=O)NC(C)(C)C)cc1-c1cnco1	16
COc1cc(NC(=O)C(=O)NC(C)(C)C)ccc1-c1nc[nH]n1	15
COc1ccc(NC(=O)C(=O)NC(C)(C)C)cc1OC	21
COc1cc(NC(=O)C(=O)NC(C)(C)C)ccc1-c1ocnc1Cc1ccccc1	35
COc1cc(NC(=O)C(=O)NC(C)(C)C)ccc1-c1ocnc1C	0.43
Cc1cc2c(cc1C)C(=O)C(C#N)CO2 (centres undefined)	88
COc1cc(NC(=O)C(=O)NC(C)(C)C)ccc1-c1cocn1	0.47
N#Cc1c[nH]c2ccccc12	32
CC(C)(C)NC(=O)C(=O)Nc1ccc(-c2cnco2)c(C(F)(F)F)c1	18

Reference: ChEMBL document CHEMBL1136381, “Discovery of novel low molecular weight inhibitors of IMPDH via virtual needle screening” (Bioorg Med Chem Lett, 2003)
